The CheMixHub viscosity set
Where “and” joins values, the source holds several entries; their conditions need not be identical. Identical values can stand only once. ± gives the uncertainty stated by the source.

Test: xn = mol fraction of the nth substance listed

O=C(CO)[C@@H](O)[C@H](O)[C@H](O)CO + O
Settings	viscosity
293.15 K, 101 kPa, x1 = 0.011	1.18 ± 0.07 mPa·s and 1.18 ± 0.08 mPa·s
293.15 K, 101 kPa, x1 = 0.0244	1.84 ± 0.11 mPa·s
293.15 K, 101 kPa, x1 = 0.0411	2.73 ± 0.17 mPa·s
293.15 K, 101 kPa, x1 = 0.0625	5.02 ± 0.31 mPa·s
293.15 K, 101 kPa, x1 = 0.0909	10.48 ± 0.65 mPa·s and 11 ± 0.7 mPa·s
293.15 K, 101 kPa, x1 = 0.13	31.43 ± 1.9 mPa·s and 32 ± 1.9 mPa·s
298.15 K, 101 kPa, x1 = 0.0005	0.934 ± 0.094 mPa·s and 0.934 mPa·s
298.15 K, 101 kPa, x1 = 0.0007	0.9442 ± 0.095 mPa·s and 0.9442 mPa·s
298.15 K, 101 kPa, x1 = 0.0009	0.9494 ± 0.095 mPa·s and 0.9494 mPa·s
298.15 K, 101 kPa, x1 = 0.0018	0.9838 ± 0.099 mPa·s and 0.9838 mPa·s
298.15 K, 101 kPa, x1 = 0.002	0.9772 ± 0.098 mPa·s and 0.9772 mPa·s
298.15 K, 101 kPa, x1 = 0.00201	0.944 ± 0.024 mPa·s
298.15 K, 101 kPa, x1 = 0.004	1.063 ± 0.026 mPa·s
298.15 K, 101 kPa, x1 = 0.00623	1.094 ± 0.027 mPa·s
298.15 K, 101 kPa, x1 = 0.011	1.02 ± 0.06 mPa·s and 1 ± 0.06 mPa·s
298.15 K, 101 kPa, x1 = 0.0244	1.59 ± 0.1 mPa·s
298.15 K, 101 kPa, x1 = 0.0411	2.15 ± 0.13 mPa·s
298.15 K, 101 kPa, x1 = 0.0625	4.17 ± 0.25 mPa·s
298.15 K, 101 kPa, x1 = 0.0909	8 ± 0.49 mPa·s and 8 ± 0.51 mPa·s
298.15 K, 101 kPa, x1 = 0.13	24.3 ± 1.5 mPa·s and 25 ± 1.5 mPa·s
298.15 K, 101.3 kPa, x1 = 0.002	0.93 ± 0.02 mPa·s
298.15 K, 101.3 kPa, x1 = 0.00359	0.969 ± 0.006 mPa·s
298.15 K, 101.3 kPa, x1 = 0.007154	1.055 ± 0.007 mPa·s
298.15 K, 101.3 kPa, x1 = 0.01069	1.15 ± 0.007 mPa·s
298.15 K, 101.3 kPa, x1 = 0.01421	1.252 ± 0.008 mPa·s
298.15 K, 101.3 kPa, x1 = 0.0177	1.362 ± 0.008 mPa·s
298.15 K, 101.3 kPa, x1 = 0.02116	1.483 ± 0.009 mPa·s
303.15 K, 100 kPa, x1 = 0.0009	0.8331 ± 0.0077 mPa·s
303.15 K, 100 kPa, x1 = 0.0027	0.8672 ± 0.0079 mPa·s
303.15 K, 100 kPa, x1 = 0.0045	0.9015 ± 0.0082 mPa·s
303.15 K, 100 kPa, x1 = 0.0063	0.9349 ± 0.0084 mPa·s
303.15 K, 101.3 kPa, x1 = 0.002	0.834 ± 0.018 mPa·s
308.15 K, 101 kPa, x1 = 0.00201	0.7816 ± 0.02 mPa·s
308.15 K, 101 kPa, x1 = 0.004	0.8663 ± 0.022 mPa·s
308.15 K, 101 kPa, x1 = 0.00623	0.8883 ± 0.023 mPa·s
308.15 K, 101 kPa, x1 = 0.007265	0.863 ± 0.018 mPa·s
308.15 K, 101 kPa, x1 = 0.01082	0.928 ± 0.02 mPa·s
308.15 K, 101 kPa, x1 = 0.011	0.93 ± 0.06 mPa·s and 0.95 ± 0.06 mPa·s
308.15 K, 101 kPa, x1 = 0.01435	1.01 ± 0.022 mPa·s
308.15 K, 101 kPa, x1 = 0.02129	1.189 ± 0.026 mPa·s
308.15 K, 101 kPa, x1 = 0.0244	1.27 ± 0.08 mPa·s
308.15 K, 101 kPa, x1 = 0.02481	1.305 ± 0.029 mPa·s
308.15 K, 101 kPa, x1 = 0.02821	1.394 ± 0.031 mPa·s
308.15 K, 101 kPa, x1 = 0.04021	1.833 ± 0.041 mPa·s
308.15 K, 101 kPa, x1 = 0.0411	1.96 ± 0.12 mPa·s
308.15 K, 101 kPa, x1 = 0.0435	1.998 ± 0.045 mPa·s
308.15 K, 101 kPa, x1 = 0.05099	2.372 ± 0.055 mPa·s
308.15 K, 101 kPa, x1 = 0.0625	3.08 ± 0.19 mPa·s
308.15 K, 101 kPa, x1 = 0.0909	5.99 ± 0.37 mPa·s and 6.05 ± 0.37 mPa·s
308.15 K, 101 kPa, x1 = 0.13	14.76 ± 0.9 mPa·s and 14 ± 0.85 mPa·s
308.15 K, 101.3 kPa, x1 = 0.002	0.753 ± 0.016 mPa·s
313.15 K, 101 kPa, x1 = 0.011	0.77 ± 0.05 mPa·s
313.15 K, 101 kPa, x1 = 0.0244	1.12 ± 0.07 mPa·s
313.15 K, 101 kPa, x1 = 0.0411	1.52 ± 0.09 mPa·s
313.15 K, 101 kPa, x1 = 0.0625	2.83 ± 0.17 mPa·s
313.15 K, 101 kPa, x1 = 0.0909	4.51 ± 0.28 mPa·s and 4.6 ± 0.29 mPa·s
313.15 K, 101 kPa, x1 = 0.13	11.83 ± 0.72 mPa·s and 11.8 ± 0.72 mPa·s
313.15 K, 101.3 kPa, x1 = 0.002	0.685 ± 0.015 mPa·s
318.15 K, 101 kPa, x1 = 0.007256	0.696 ± 0.015 mPa·s
318.15 K, 101 kPa, x1 = 0.01084	0.758 ± 0.016 mPa·s
318.15 K, 101 kPa, x1 = 0.02144	0.946 ± 0.021 mPa·s
318.15 K, 101 kPa, x1 = 0.0244	0.99 ± 0.06 mPa·s
318.15 K, 101 kPa, x1 = 0.02474	1.021 ± 0.023 mPa·s
318.15 K, 101 kPa, x1 = 0.03978	1.469 ± 0.033 mPa·s
318.15 K, 101 kPa, x1 = 0.0411	1.24 ± 0.08 mPa·s
318.15 K, 101 kPa, x1 = 0.05983	2.055 ± 0.049 mPa·s
318.15 K, 101 kPa, x1 = 0.0625	2.3 ± 0.14 mPa·s
318.15 K, 101 kPa, x1 = 0.0909	3.65 ± 0.22 mPa·s
318.15 K, 101 kPa, x1 = 0.13	9.57 ± 0.58 mPa·s and 8 ± 0.49 mPa·s
318.15 K, 101.3 kPa, x1 = 0.002	0.625 ± 0.014 mPa·s
323.15 K, 101 kPa, x1 = 0.011	0.69 ± 0.04 mPa·s
323.15 K, 101 kPa, x1 = 0.0244	0.92 ± 0.06 mPa·s
323.15 K, 101 kPa, x1 = 0.0411	1.29 ± 0.08 mPa·s
323.15 K, 101 kPa, x1 = 0.0625	2.04 ± 0.12 mPa·s
323.15 K, 101 kPa, x1 = 0.0909	3.4 ± 0.21 mPa·s
323.15 K, 101 kPa, x1 = 0.13	7.81 ± 0.47 mPa·s and 7.5 ± 0.45 mPa·s
